Source: the NIST ThermoML archive (doi:10.1016/j.jct.2015.08.014)
± gives the expanded uncertainty stated by the source.

Assay: xn = mol fraction of the nth substance listed
Details: 323.15 K, 100 kPa, Liquid; for electrical conductivity: Alternating current cell with electrodes; for mass density: Vibrating tube method

CCCC[N+]1(C)CCCC1.N#CN=C=[N-] [1-butyl-1-methylpyrrolidinium dicyanamide] + O=C1CCCO1
electrical conductivity [S/m]
Details | Frequency=0.005454 MHz | Frequency=0.006 MHz | Frequency=0.00652174 MHz | Frequency=0.00694444 MHz | Frequency=0.0075 MHz | Frequency=0.008 MHz | Frequency=0.00857143 MHz | Frequency=0.00892857 MHz | Frequency=0.00961538 MHz | Frequency=0.01 MHz
x1 = 0.0463 | – | 2.01 ± 0.037 | 2.01 ± 0.037 | 2.01 ± 0.037 | 2.01 ± 0.037 | 2.01 ± 0.037 | 2.01 ± 0.037 | 2.01 ± 0.037 | 2.01 ± 0.037 | 2.01 ± 0.037
x1 = 0.0987 | – | 3.08 ± 0.039 | 3.08 ± 0.039 | 3.08 ± 0.039 | 3.08 ± 0.039 | 3.08 ± 0.039 | 3.08 ± 0.039 | 3.08 ± 0.039 | 3.08 ± 0.039 | 3.08 ± 0.039
x1 = 0.1449 | – | 3.57 ± 0.038 | 3.57 ± 0.038 | 3.57 ± 0.038 | 3.57 ± 0.038 | 3.57 ± 0.038 | 3.57 ± 0.038 | 3.57 ± 0.038 | 3.57 ± 0.038 | 3.57 ± 0.038
x1 = 0.1859 | – | 3.86 ± 0.039 | 3.86 ± 0.039 | 3.86 ± 0.039 | 3.86 ± 0.039 | 3.86 ± 0.039 | 3.86 ± 0.039 | 3.86 ± 0.039 | 3.86 ± 0.039 | 3.86 ± 0.039
x1 = 0.2493 | – | 3.89 ± 0.039 | 3.9 ± 0.039 | 3.9 ± 0.039 | 3.9 ± 0.039 | 3.9 ± 0.039 | 3.9 ± 0.039 | 3.9 ± 0.039 | 3.9 ± 0.039 | 3.9 ± 0.039
x1 = 0.3029 | – | 3.88 ± 0.039 | 3.88 ± 0.039 | 3.88 ± 0.039 | 3.88 ± 0.039 | 3.88 ± 0.039 | 3.88 ± 0.039 | 3.88 ± 0.039 | 3.88 ± 0.039 | 3.88 ± 0.039
x1 = 0.3845 | – | 3.74 ± 0.038 | 3.74 ± 0.038 | 3.74 ± 0.038 | 3.74 ± 0.038 | 3.74 ± 0.038 | 3.74 ± 0.038 | 3.74 ± 0.038 | 3.74 ± 0.038 | 3.74 ± 0.038
x1 = 0.4985 | – | 3.46 ± 0.035 | 3.46 ± 0.035 | 3.46 ± 0.035 | 3.46 ± 0.035 | 3.46 ± 0.035 | 3.46 ± 0.035 | 3.46 ± 0.035 | 3.46 ± 0.035 | 3.46 ± 0.035
x1 = 0.6954 | – | 2.99 ± 0.03 | 2.99 ± 0.03 | 2.99 ± 0.03 | 2.99 ± 0.03 | 2.99 ± 0.03 | 2.99 ± 0.03 | 2.99 ± 0.03 | 3 ± 0.03 | 3 ± 0.03
x1 = 0.9013 | 2.633 ± 0.026 | 2.633 ± 0.026 | 2.63 ± 0.027 | 2.63 ± 0.027 | 2.63 ± 0.027 | 2.63 ± 0.027 | 2.63 ± 0.027 | 2.63 ± 0.027 | 2.63 ± 0.027 | 2.63 ± 0.027
x1 = 1 | 2.529 ± 0.025 | 2.529 ± 0.025 | 2.529 ± 0.025 | 2.529 ± 0.025 | 2.529 ± 0.025 | 2.529 ± 0.025 | 2.529 ± 0.025 | 2.529 ± 0.025 | 2.529 ± 0.025 | 2.529 ± 0.025

Details | mass density [kg/m3]
x1 = 0.0987 | 1082.02 ± 8.7
x1 = 0.1859 | 1067.9 ± 8.6
x1 = 0.3029 | 1051.93 ± 8.4
x1 = 0.4985 | 1031.43 ± 8.3
x1 = 0.6954 | 1016.21 ± 8.2
x1 = 0.9013 | 1004.23 ± 8.1
x1 = 1 | 999.525 ± 8
